Assay [1] deals with THP-1. In words: Antiinflammatory activity in human THP-1 monocytes assessed as decrease in IL-6 production at 1 to 10 uM incubated for 24 hrs in the presence of JTE907 by ELISA coupled qRT-PCR analysis. The settings on record: dose 1-10 µM. The format is functional, cell-based.
Assay [2] deals with THP-1. As to the kind of experiment: Antiinflammatory activity in human THP-1 monocytes assessed as decrease in IFN-gamma production incubated for 24 hrs by ELISA coupled qRT-PCR analysis. The format is functional, cell-based. The settings on record: dose 1-10 µM. In general terms: In an ELISA, binding on a coated surface is turned into a signal by an enzyme label.
Assay [3] deals with THP-1. As to the kind of experiment: Antiinflammatory activity against LPS-activated PMA-differentiated human THP-1 macrophages assessed as decrease in IFN-gamma production at 1 to 10 uM incubated for 24 hrs by ELISA coupled qRT-PCR analysis relative to control. The format is functional. Further details: scale not given: the % may be the effect or the level left. As to conditions: dose 1-10 µM.

The subject of assay [4] is THP-1. In words: Antiinflammatory activity in human THP-1 monocytes assessed as decrease in IFN-gamma production at 1 to 10 uM incubated for 24 hrs in the presence of JTE907 by ELISA coupled qRT-PCR analysis. As to conditions: dose 1-10 µM. It is filed as functional, cell-based.
Assay [5] has as its system THP-1. In words: Antiinflammatory activity in LPS-activated PMA-differentiated human THP-1 macrophages assessed as decrease in IL-6 production at 1 to 10 uM incubated for 24 hrs in the presence of JTE907 by ELISA coupled qRT-PCR analysis. The format is functional, cell-based. The settings on record: dose 1-10 µM.
In assay [6] the test system is THP-1. As to the kind of experiment: Antiinflammatory activity in LPS-activated PMA-differentiated human THP-1 macrophages assessed as increase in IL-10 production at 1 to 10 uM incubated for 24 hrs in the presence of JTE907 by ELISA coupled qRT-PCR analysis. The format is functional, cell-based. As to conditions: dose 1-10 µM.
Assay [7] relates to THP-1. As to the kind of experiment: Antiinflammatory activity in LPS-activated PMA-differentiated human THP-1 macrophages assessed as decrease in IL-1beta production at 1 to 10 uM incubated for 24 hrs in the presence of JTE907 by ELISA coupled qRT-PCR analysis. The format is functional, cell-based. The settings on record: dose 1-10 µM.
The subject of assay [8] is THP-1. In words: Antiinflammatory activity in PMA-differentiated human THP-1 macrophages assessed as increase in IL-10 production at 1 to 10 uM incubated for 24 hrs in the presence of JTE907 by ELISA coupled qRT-PCR analysis. The format is functional, cell-based. The settings on record: dose 1-10 µM.
In the next assay the target is Cannabinoid receptor 2 (Homo sapiens, UniProt P34972). As to the kind of experiment: Displacement of [3H]-CP55940 from human CB2 receptor expressed in HEK293 cell membrane assessed as inhibition constant incubated for 90 mins by radioligand competition binding assay. The format is cell membranes. Background: Loss of bound radioactivity is the signal in a displacement assay; it reports binding, not function.

The subject of assay [9] is THP-1. In words: Antiinflammatory activity in PMA-differentiated human THP-1 macrophages assessed as increase in IL-4 production at 1 to 10 uM incubated for 24 hrs in the presence of JTE907 by ELISA coupled qRT-PCR analysis. The format is functional, cell-based. The settings on record: dose 1-10 µM.
Assay [10] deals with THP-1. In words: Antiinflammatory activity in human THP-1 monocytes assessed as decrease in IL-1beta production at 1 to 10 uM incubated for 24 hrs in the presence of JTE907 by ELISA coupled qRT-PCR analysis. As to conditions: dose 1-10 µM. The format is functional, cell-based.
Assay [11] concerns THP-1. As to the kind of experiment: Antiinflammatory activity against LPS-activated PMA-differentiated human THP-1 monocytes assessed as decrease in IL-1beta production at 10 uM incubated for 24 hrs in the presence of N-(adamantan-1-yl)-4-(pentylamino)-[1,1'-biphenyl]-3-carboxamide by ELISA coupled qRT-PCR analysis. The format is functional, cell-based.
The subject of assay [12] is THP-1. In words: Antiinflammatory activity against LPS-activated PMA-differentiated human THP-1 macrophages assessed as decrease in IL-1beta production at 10 uM incubated for 24 hrs by ELISA coupled qRT-PCR analysis relative to control. The format is functional. Further details: scale not given: the % may be the effect or the level left.
Assay [13] concerns THP-1. As to the kind of experiment: Antiinflammatory activity against LPS-activated PMA-differentiated human THP-1 macrophages assessed as increase in IL-4 production at 10 uM incubated for 24 hrs by ELISA coupled qRT-PCR analysis. It is filed as functional, cell-based.
The test system of assay [14] is THP-1. In words: Antiinflammatory activity in PMA-differentiated human THP-1 monocytes assessed as decrease in IFN-gamma production at 10 uM incubated for 24 hrs in the presence of N-(adamantan-1-yl)-4-(pentylamino)-[1,1'-biphenyl]-3-carboxamide by ELISA coupled qRT-PCR analysis. The format is functional, cell-based.
Assay [15] relates to THP-1. As to the kind of experiment: Antiinflammatory activity in human THP-1 monocytes assessed as increase in IL-4 production at 10 uM incubated for 24 hrs in the presence of N-(adamantan-1-yl)-4-(pentylamino)-[1,1'-biphenyl]-3-carboxamide by ELISA coupled qRT-PCR analysis. It is filed as functional, cell-based.
The test system of assay [16] is THP-1. In words: Antiinflammatory activity in PMA-differentiated human THP-1 macrophages assessed as increase in IL-4 production at 10 uM incubated for 24 hrs by ELISA coupled qRT-PCR analysis. It is filed as functional, cell-based.
Assay [17] relates to THP-1. As to the kind of experiment: Antiinflammatory activity in LPS-activated PMA-differentiated human THP-1 macrophages assessed as increase in IL-4 production at 10 uM incubated for 24 hrs in the presence of JTE907 by ELISA coupled qRT-PCR analysis. It is filed as functional, cell-based.
Assay [18] relates to THP-1. In words: Antiinflammatory activity in LPS-activated PMA-differentiated human THP-1 macrophages assessed as increase in IL-10 production at 10 uM incubated for 24 hrs in the presence of JTE907 by ELISA coupled qRT-PCR analysis. The format is functional, cell-based.
The test system of assay [19] is THP-1. In words: Antiinflammatory activity against LPS-activated human THP-1 monocytes assessed as increase in IL-4 production at 10 uM incubated for 24 hrs in the presence of N-(adamantan-1-yl)-4-(pentylamino)-[1,1'-biphenyl]-3-carboxamide by ELISA coupled qRT-PCR analysis. It is filed as functional, cell-based.
In assay [20] the test system is THP-1. As to the kind of experiment: Antiinflammatory activity in human THP-1 monocytes assessed as increase in IL-10 production at 10 uM incubated for 24 hrs in the presence of JTE907 by ELISA coupled qRT-PCR analysis. It is filed as functional, cell-based.
The test system of assay [21] is THP-1. As to the kind of experiment: Antiinflammatory activity in human THP-1 monocytes assessed as decrease in IFN-gamma production at 10 uM incubated for 24 hrs in the presence of N-(adamantan-1-yl)-4-(pentylamino)-[1,1'-biphenyl]-3-carboxamide by ELISA coupled qRT-PCR analysis. The format is functional, cell-based.
The test system of assay [22] is THP-1. In words: Antiinflammatory activity in LPS-activated PMA-differentiated human THP-1 macrophages assessed as decrease in IL-1beta production at 10 uM incubated for 24 hrs in the presence of JTE907 by ELISA coupled qRT-PCR analysis. The format is functional, cell-based.
In assay [23] the test system is THP-1. In words: Antiinflammatory activity against LPS-activated PMA-differentiated human THP-1 macrophages assessed as decrease in IL-6 production at 10 uM incubated for 24 hrs by ELISA coupled qRT-PCR analysis relative to control. The format is functional. The arrangement: scale not given: the % may be the effect or the level left.
In assay [24] the test system is THP-1. As to the kind of experiment: Antiinflammatory activity in PMA-differentiated human THP-1 macrophages assessed as reduction in IL-1beta production at 10 uM incubated for 24 hrs by ELISA coupled qRT-PCR analysis relative to control. The format is functional. Further details: scale not given: the % may be the effect or the level left.
Assay [25] relates to THP-1. In words: Antiinflammatory activity in human THP-1 monocytes assessed as decrease in IFN-gamma production at 10 uM incubated for 24 hrs in the presence of JTE907 by ELISA coupled qRT-PCR analysis. It is filed as functional, cell-based.
In assay [26] the test system is THP-1. In words: Antiinflammatory against LPS-activated human THP-1 monocytes assessed as decrease in IL-1beta production at 10 uM incubated for 24 hrs in the presence of JTE907 by ELISA coupled qRT-PCR analysis. The format is functional, cell-based.
Assay [27] has as its system THP-1. As to the kind of experiment: Antiinflammatory activity in PMA-differentiated human THP-1 macrophages assessed as reduction in IL-6 production at 10 uM incubated for 24 hrs by ELISA coupled qRT-PCR analysis relative to control. The format is functional. The arrangement: scale not given: the % may be the effect or the level left.

SMILES strings stand for the structures. Activity calls are given as the source filed them. No cut-off for these calls is given here.

Cannabinoid receptor 2, sequence (P34972 whole entry): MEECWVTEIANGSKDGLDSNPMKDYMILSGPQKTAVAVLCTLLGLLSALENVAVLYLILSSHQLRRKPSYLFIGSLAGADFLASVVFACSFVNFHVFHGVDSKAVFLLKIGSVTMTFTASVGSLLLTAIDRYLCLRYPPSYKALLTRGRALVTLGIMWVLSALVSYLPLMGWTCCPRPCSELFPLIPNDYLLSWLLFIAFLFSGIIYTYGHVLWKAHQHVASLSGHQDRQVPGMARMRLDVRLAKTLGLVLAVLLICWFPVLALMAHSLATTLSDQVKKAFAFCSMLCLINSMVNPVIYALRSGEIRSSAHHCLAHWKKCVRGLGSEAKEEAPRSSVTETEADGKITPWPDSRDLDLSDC

On to `CCCCCNc1ccccc1C(=O)NC12CC3CC(CC(C3)C1)C2`, for which the outcome with THP-1 [1], in the assay with THP-1 [4], in the assay on THP-1 [5], in the assay with THP-1 [6], in the assay on THP-1 [7] and with THP-1 [8] was inactive. Further, the result with THP-1 [9] and in the assay with THP-1 [10] was inactive. In addition, the figures for the Activity result in the assay on THP-1 [2] and in the assay with THP-1 [3] were “Dose-Dependent Effect” and 70%, respectively. Moreover, on Cannabinoid receptor 2, the inhibition constant (Ki) was determined as 55.7 nM.
On to `O=C(NC1CCCCC1)c1cn(CCN2CCOCC2)c2cc(Cl)ccc2c1=O`, for which the result in the assay on THP-1 [11], in the assay with THP-1 [14], in the assay on THP-1 [15], with THP-1 [17], in the assay on THP-1 [18] and in the assay on THP-1 [19] was inactive. Besides, the outcome in the assay on THP-1 [20], in the assay on THP-1 [21], in the assay with THP-1 [22], in the assay with THP-1 [25] and in the assay on THP-1 [26] was inactive. Further, the Activity amounted to 70% in the assay on THP-1 [12], 70% in the assay with THP-1 [23], 50% in the assay with THP-1 [24] and 50% with THP-1 [27]. For the same compound, the result in the assay on THP-1 [13] and with THP-1 [16] was Active.

For orientation: Ki means the dissociation constant of the complex between target and ligand, obtained from inhibition or displacement.

The values above are taken from ChEMBL document CHEMBL5321210, “N-adamantyl-anthranil amide derivatives: New selective ligands for the cannabinoid receptor subtype 2 (CB2R)” (Eur J Med Chem, 2023).
